Laboratory results as given in patent US11286242B2 (priority 2018, dated 2022).

What follows are molecules tested on Pyricularia oryzae (assay: microbe, parasite or virus in culture). Conditions: 168 h, read-out: control compared to the untreated check.
Assay type: cell-based

Row | Compound | inhibition of growth at 300 ppm
1 | CS(=O)(=NCc1cccc(F)c1)c1ccc(-c2noc(C(F)(F)F)n2)cc1 (centres unmarked) [Compound 185, ((3-fluorobenzyl)imino)(methyl)(4-(5-(trifluoromethyl)-1,2,4-oxadiazol-3-yl)phenyl)-λ^6-sulfanone] | > 70%
2 | CS(=O)(=Nc1ccc(-c2noc(C(F)(F)F)n2)cc1F)c1ccccc1 (centres unmarked) [Compound 166, ((2-fluoro-4-(5-(trifluoromethyl)-1,2,4-oxadiazol-3-yl)phenyl)imino)(methyl)(phenyl)-λ^6-sulfanone] | > 70%
3 | CS(=O)(=NCc1cccc(-c2noc(C(F)(F)F)n2)c1)c1ccc(Cl)cc1 (centres unmarked) [Compound 143, (4-chlorophenyl)(methyl)((3-(5-(trifluoromethyl)-1,2,4-oxadiazol-3-yl)benzyl)imino)-λ^6-sulfanone] | > 70%
4 | CS(=O)(=NCc1cccc(-c2noc(C(F)(F)F)n2)c1)c1cc(F)ccc1Br (centres unmarked) [Compound 146, (2-bromo-5-fluorophenyl)(methyl)((3-(5-(trifluoromethyl)-1,2,4-oxadiazol-3-yl)benzyl)imino)-λ^6-sulfanone] | > 70%
5 | COc1cccc(S(C)(=O)=Nc2ccc(-c3noc(C(F)(F)F)n3)nc2)c1 (centres unmarked) [Compound 127, (3-methoxyphenyl)(methyl)((6-(5-(trifluoromethyl)-1,2,4-oxadiazol-3-yl)pyridin-3-yl)imino)-λ^6-sulfanone] | > 70%
6 | CS(=O)(=NCc1ccc(-c2noc(C(F)(F)F)n2)cc1)c1ccccn1 (centres unmarked) [Compound 27, methyl(pyridin-2-yl)((4-(5-(trifluoromethyl)-1,2,4-oxadiazol-3-yl)benzyl)imino)-λ^6-sulfanone] | > 70%
7 | Cc1cccc(S(C)(=O)=Nc2cccc(-c3noc(C(F)(F)F)n3)c2)c1 (centres unmarked) [Compound 114, methyl(m-tolyl)((3-(5-(trifluoromethyl)-1,2,4-oxadiazol-3-yl)phenyl)imino)-λ^6-sulfanone] | > 70%
8 | CS(=O)(=NCc1cccc(-c2noc(C(F)(F)F)n2)c1)c1nccs1 (centres unmarked) [Compound 144, methyl(thiazol-2-yl)((3-(5-(trifluoromethyl)-1,2,4-oxadiazol-3-yl)benzyl)imino)-λ^6-sulfanone] | > 70%
9 | CS(=O)(=NC(=O)c1ccc(-c2noc(C(F)(F)F)n2)cc1)c1ccccc1F (centres unmarked) [Compound 3, N-((2-fluorophenyl)(methyl)(oxo)-λ^6-sulfanylidene)-4-(5-(trifluoromethyl)-1,2,4-oxadiazol-3-yl)benzamide] | > 70%
10 | Cc1ccc(S(C)(=O)=Nc2ccc(-c3noc(C(F)(F)F)n3)cc2)cc1 (centres unmarked) [Compound 130, methyl(p-tolyl)((4-(5-(trifluoromethyl)-1,2,4-oxadiazol-3-yl)phenyl)imino)-λ^6-sulfanone] | > 70%
11 | CS(=O)(=NCc1ccc(F)cc1)c1ccc(-c2noc(C(F)(F)F)n2)cc1 (centres unmarked) [Compound 183] | > 70%
12 | CS(=O)(=NCc1cccc(Cl)c1)c1ccc(-c2noc(C(F)(F)F)n2)cc1 (centres unmarked) [Compound 182, ((3-chlorobenzyl)imino)(methyl)(4-(5-(trifluoromethyl)-1,2,4-oxadiazol-3-yl)phenyl)-λ^6-sulfanone] | > 70%
13 | CS(=O)(=Nc1ccc(-c2noc(C(F)(F)F)n2)cc1F)c1ccccc1F (centres unmarked) [Compound 165, ((2-fluoro-4-(5-(trifluoromethyl)-1,2,4-oxadiazol-3-yl)phenyl)imino)(2-fluorophenyl)(methyl)-λ^6-sulfanone] | > 70%
14 | CS(=O)(=Nc1ccc(-c2noc(C(F)(F)F)n2)cc1F)c1ccc(Cl)cc1 (centres unmarked) [Compound 167, (4-chlorophenyl)((2-fluoro-4-(5-(trifluoromethyl)-1,2,4-oxadiazol-3-yl)phenyl)imino)(methyl)-λ^6-sulfanone] | > 70%
15 | CS(=O)(=NCc1ccc(F)cc1F)c1ccc(-c2noc(C(F)(F)F)n2)cc1 (centres unmarked) [Compound 184, ((2,4-difluorobenzyl)imino)(methyl)(4-(5-(trifluoromethyl)-1,2,4-oxadiazol-3-yl)phenyl)-λ^6-sulfanone] | > 70%
16 | COc1cccc(S(C)(=O)=Nc2ccc(-c3noc(C(F)(F)F)n3)cc2)c1 (centres unmarked) [Compound 106, (3-methoxyphenyl)(methyl)((4-(5-(trifluoromethyl)-1,2,4-oxadiazol-3-yl)phenyl)imino)-λ^6-sulfanone] | > 70%
17 | CS(=O)(=Nc1ccc(-c2noc(C(F)(F)F)n2)cc1F)c1cccc(F)c1 (centres unmarked) [Compound 169, ((2-fluoro-4-(5-(trifluoromethyl)-1,2,4-oxadiazol-3-yl)phenyl)imino)(3-fluorophenyl)(methyl)-λ^6-sulfanone] | > 70%
18 | O=S1(=NCc2cccc(-c3noc(C(F)(F)F)n3)c2)CCOCC1 [Compound 149, 4-((3-(5-(trifluoromethyl)-1,2,4-oxadiazol-3-yl)benzyl)imino)-1,4λ^6-oxathiane 4-oxide] | > 70%
19 | CS(=O)(=NCc1cccc(-c2noc(C(F)(F)F)n2)c1)c1ccc(F)cc1 (centres unmarked) [Compound 145, (4-fluorophenyl)(methyl)((3-(5-(trifluoromethyl)-1,2,4-oxadiazol-3-yl)benzyl)imino)-λ^6-sulfanone] | > 70%
20 | CS(=O)(=NCc1ccc(-c2noc(C(F)(F)F)n2)cc1)c1ccccc1F (centres unmarked) [Compound 29, (2-fluorophenyl)(methyl)((4-(5-(trifluoromethyl)-1,2,4-oxadiazol-3-yl)benzyl)imino)-λ^6-sulfanone] | > 70%
21 | CC(C)S(=O)(=NCc1ccc(-c2noc(C(F)(F)F)n2)cc1)c1ccccc1 (centres unmarked) [Compound 151, isopropyl(phenyl)((4-(5-(trifluoromethyl)-1,2,4-oxadiazol-3-yl)benzyl)imino)-λ^6-sulfanone] | > 70%
22 | CC(C)S(=O)(=NCc1ccc(-c2noc(C(F)(F)F)n2)cc1)c1ccc(Cl)cc1 (centres unmarked) [Compound 152, (4-chlorophenyl)(isopropyl)((4-(5-(trifluoromethyl)-1,2,4-oxadiazol-3-yl)benzyl)imino)-λ^6-sulfanone] | > 70%
23 | COc1ccc(S(C)(=O)=Nc2ccc(-c3noc(C(F)(F)F)n3)cc2F)cc1 (centres unmarked) [Compound 171, ((2-fluoro-4-(5-(trifluoromethyl)-1,2,4-oxadiazol-3-yl)phenyl)imino)(4-methoxyphenyl)(methyl)-λ^6-sulfanone] | > 70%
24 | CS(=O)(=Nc1cccc(-c2noc(C(F)(F)F)n2)c1)c1ccccc1 (centres unmarked) [Compound 122, methyl(phenyl)((3-(5-(trifluoromethyl)-1,2,4-oxadiazol-3-yl)phenyl)imino)-λ^6-sulfanone] | > 70%
25 | CS(=O)(=NCc1cccc(-c2noc(C(F)(F)F)n2)c1)c1ccc(Br)cc1F (centres unmarked) [Compound 147, (4-bromo-2-fluorophenyl)(methyl)((3-(5-(trifluoromethyl)-1,2,4-oxadiazol-3-yl)benzyl)imino)-λ^6-sulfanone] | > 70%
26 | CS(=O)(=Nc1ccc(-c2noc(C(F)(F)F)n2)nc1)c1ccc(C(F)(F)F)cc1 (centres unmarked) [Compound 124, methyl((6-(5-(trifluoromethyl)-1,2,4-oxadiazol-3-yl)pyridin-3-yl)imino)(4-(trifluoromethyl)phenyl)-λ^6-sulfanone] | > 70%
27 | CS(=O)(=NCc1cccc(-c2noc(C(F)(F)F)n2)c1)c1ccc(F)c(F)c1 (centres unmarked) [Compound 141, (3,4-difluorophenyl)(methyl)((3-(5-(trifluoromethyl)-1,2,4-oxadiazol-3-yl)benzyl)imino)-sulfanone] | > 70%
28 | CS(=O)(=Nc1ccc(-c2noc(C(F)(F)F)n2)cc1)c1ccc(F)c(F)c1 (centres unmarked) [Compound 97, (3,4-difluorophenyl)(methyl)((4-(5-(trifluoromethyl)-1,2,4-oxadiazol-3-yl)phenyl)imino)-λ^6-sulfanone] | > 70%

What follows are molecules tested on Phakopsora pachyrhizi (assay: Phakopsora pachyrhizi test in soybean, preventive spray). Conditions: preventive spray on soybean plants, inoculated one day after treatment, greenhouse 25° C., 90% relative humidity, read-out: control (efficacy, disease severity rating) compared to the untreated check.
Assay type: in vivo
Procedure: Example 8: Phakopsora pachyrhizi Test in Soybean
Compounds were dissolved in 2% DMSO/Acetone & then mixed with water to the calibrated spray volume of 50 mL and poured into the spray bottles for further applications.
To test the preventive activity of compounds, healthy young soybean plants raised in the greenhouse were sprayed with active compound preparation at the stated application rates inside the spray cabinets using hallowcone nozzles. One day after treatment, the plants were inoculated with spore suspension containing 2.1×10^6 Phakopsora pachyrhizi inoculum. The inoculated plants were then kept in greenhouse chamber at 25° C. temperature & 90% relative humidity for disease expression.
A visual assessment of compound's performance was carried out by rating the disease severity (0-100% scale) on treated plants on 3, 7, 10 & 15 days after application. Efficacy (% control) of the compounds was calculated by comparing the disease rating in the treatment with the one of the untreated control. The sprayed plants were also assessed for compound's plant compatibility by recording symptoms like necrosis, chlorosis & stunting.

Row | Compound | pest or weed control at 500 ppm
29 | CS(=O)(=NCc1ccc(-c2noc(C(F)(F)F)n2)cc1)c1ccccn1 (centres unmarked) [Compound 27, methyl(pyridin-2-yl)((4-(5-(trifluoromethyl)-1,2,4-oxadiazol-3-yl)benzyl)imino)-λ^6-sulfanone] | > 90%
30 | CS(=O)(=NC(=O)c1ccc(-c2noc(C(F)(F)F)n2)cc1)c1ccccc1F (centres unmarked) [Compound 3, N-((2-fluorophenyl)(methyl)(oxo)-λ^6-sulfanylidene)-4-(5-(trifluoromethyl)-1,2,4-oxadiazol-3-yl)benzamide] | > 90%
31 | CS(=O)(=NC(=O)c1ccc(-c2noc(C(F)(F)F)n2)cc1)c1c(F)cccc1F (centres unmarked) [Compound 36, N-((2,6-difluorophenyl)(methyl)(oxo)-λ^6-sulfaneylidene)-4-(5-(trifluoromethyl)-1,2,4-oxadiazol-3-yl)benzamide] | > 90%
32 | Cc1nnc(S(C)(=O)=NC(=O)c2ccc(-c3noc(C(F)(F)F)n3)cc2)s1 (centres unmarked) [Compound 54, N-(methyl(5-methyl-1,3,4-thiadiazol-2-yl)(oxo)-λ^6-sulfaneylidene)-4-(5-(trifluoromethyl)-1,2,4-oxadiazol-3-yl)benzamide] | > 90%
33 | CS(=O)(=NC(=O)c1ccc(-c2noc(C(F)(F)F)n2)cc1)c1ccccc1 (centres unmarked) [Compound 9, N-(methyl(oxo)(phenyl)-λ^6-sulfanylidene)-4-(5-(trifluoromethyl)-1,2,4-oxadiazol-3-yl)benzamide] | > 90%
34 | CS(=O)(=NCc1ccc(-c2noc(C(F)(F)F)n2)cc1)c1ccccc1 (centres unmarked) [Compound 26, methyl(phenyl)((4-(5-(trifluoromethyl)-1,2,4-oxadiazol-3-yl)benzyl)imino)-λ^6-sulfanone] | > 90%
35 | CS(=O)(=NC(=O)c1ccc(-c2noc(C(F)(F)F)n2)cc1)c1ccncc1 (centres unmarked) [Compound 4, N-(methyl(oxo)(pyridin-4-yl)-λ^6-sulfanylidene)-4-(5-(trifluoromethyl)-1,2,4-oxadiazol-3-yl)benzamide] | > 90%
